Assay results from patent publication US7084268B1, “Carbapenem compound crystals and interjection preparations” (Eisai Co., Ltd., priority 1999, dated 2006).
Counter-ions that a name gives are not always drawn.

Assay: Color difference after degasification of vial at various pressures and replacement by nitrogen
Format: physicochemical
Conditions: 60° C., n = 6
Experimental: As the monohydrate, the powdery charged preparations for injection of the novel carbapenem crystals (25 mg/vial) obtained by degasification of the air in the vial at 100, 10, 1, 0.1 and 0.01 hPa (hectopascal) respectively and subsequent replacement by nitrogen according to the method in Example 2-3 (replacement by nitrogen) were stored at 60° C. for 1 or 4 weeks (N=6) and then measured for their color difference (ΔE). The oxygen concentrations in the preparations in vials degasified at 100, 10, 1, 0.1, 0.01 hPa (hectopascal) were measured by an oxygen analyzer (RO-101, Iizima Kogyo). As the trihydrate, the powdery charged preparations of the novel carbapenem hydrochloride crystals (25 mg/vial) obtained in the method in Example 1-9 (replacement by nitrogen) were degasified in the same manner, stored at 80° C. for 1 week (N=6) and then measured for their color difference (ΔE). As the control, the powdery charged preparation of the novel carbapenem hydrochloride crystals (25 mg/vial) subjected to neither degasification nor replacement by nitrogen was used.

C[C@@H](O)[C@H]1C(=O)N2C(C(=O)O)=C(S[C@@H]3CN[C@H]([C@H](O)[C@@H]4CCNC4)C3)[C@H](C)[C@H]12 [monohydrate, (+)-(1R,5S,6S)-6-[(R)-1-Hydroxyethyl]-1-methyl-2-[(2S,4S)-2-[(3R)-pyrrolidine-3-yl-(R)-hydroxymethyl]pyrrolidine-4-yl]thio-1-carbapen-2-em-3-carboxylic acid monohydrochloride monohydrate]
color difference (ΔE) (control: neither degasification nor replacement by nitrogen, 1 week): 7.37 | color difference (ΔE) (control: neither degasification nor replacement by nitrogen, 4 weeks): 14.94 | color difference (ΔE) (vial degasified at 0.01 hPa (oxygen concentration 0.24 ± 0.03%), replaced by nitrogen, 1 week): 3.11 | color difference (ΔE) (vial degasified at 0.01 hPa (oxygen concentration 0.24 ± 0.03%), replaced by nitrogen, 4 weeks): 4.91 | color difference (ΔE) (vial degasified at 0.1 hPa (oxygen concentration 0.21 ± 0.01%), replaced by nitrogen, 1 week): 2.28 | color difference (ΔE) (vial degasified at 0.1 hPa (oxygen concentration 0.21 ± 0.01%), replaced by nitrogen, 4 weeks): 4.98 | color difference (ΔE) (vial degasified at 1 hPa (oxygen concentration 0.24 ± 0.04%), replaced by nitrogen, 1 week): 2.62 | color difference (ΔE) (vial degasified at 1 hPa (oxygen concentration 0.24 ± 0.04%), replaced by nitrogen, 4 weeks): 4.51 | color difference (ΔE) (vial degasified at 10 hPa (oxygen concentration 0.29 ± 0.08%), replaced by nitrogen, 1 week): 2.40 | color difference (ΔE) (vial degasified at 10 hPa (oxygen concentration 0.29 ± 0.08%), replaced by nitrogen, 4 weeks): 5.69 | color difference (ΔE) (vial degasified at 100 hPa (oxygen concentration 3.01 ± 1.12%), replaced by nitrogen, 1 week): 2.85 | color difference (ΔE) (vial degasified at 100 hPa (oxygen concentration 3.01 ± 1.12%), replaced by nitrogen, 4 weeks): 8.02
